Experimental data from the supplement of paper PMC11665569.

How the values were obtained:
Conditions in all cases: treatment time: 5 days
H1373 [1] = system: H1373
Experimental: (§1)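 CCK-8 viability of KRAS G12C-mutant cancer cell lines transfected with control, YAP/TAZ or TEAD1-4 siRNAs and treated with KRAS G12C inhibitors for 5 days; IC50 fitted in Prism after normalising absorbance at 450 nm to vehicle control.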

H2030 = system: H2030
Experimental: as §1

H358 = system: H358
Experimental: as §1

KYSE410 = system: KYSE410
Experimental: as §1

MIAPACA2 [2] = system: MIAPACA2
Experimental: as §1

SW1573 = system: SW1573
Experimental: as §1

MIAPACA2 [3] = assay: relative viability (fraction of vehicle control); higher = more viable / less inhibited
Experimental: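 CCK-8 viability of MIAPACA2 cells with empty vector or constitutively active YAP S127A, treated with KRAS G12C inhibitors for 5 days, normalised to vehicle control.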

H1373 [4] = assay: as above
Experimental: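 CCK-8 viability of H1373 cells with empty vector or constitutively active YAP S127A, treated with KRAS G12C inhibitors for 5 days, normalised to vehicle control.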

C=CC(=O)N1CCN(c2ncnc3c(F)c(-c4c(O)cccc4F)c(Cl)cc23)CC1 [ARS1620]
Conditions	IC50 (cell viability, 5 days) [µM]	relative viability
H358, siRNA knockdown (Con = control): Con	0.4	–
H358, siRNA knockdown (Con = control): TEAD1234_si1	0.366	–
H358, siRNA knockdown (Con = control): TEAD1234_si2	0.228	–
H358, siRNA knockdown (Con = control): YAP_WWTR1_si1	0.183	–
H358, siRNA knockdown (Con = control): YAP_WWTR1_si2	0.135	–
H1373 [1], siRNA knockdown (Con = control): Con	1.95	–
H1373 [1], siRNA knockdown (Con = control): YAP_WWTR1_si1	0.58	–
H1373 [1], siRNA knockdown (Con = control): YAP_WWTR1_si2	0.305	–
H1373 [4], log10 concentration (uM): 0, ectopic expression: YAP S127A	–	0.7325
H1373 [4], log10 concentration (uM): 0, ectopic expression: empty vector (YAP experiment)	–	0.658
H1373 [4], log10 concentration (uM): 0.39794, ectopic expression: YAP S127A	–	0.627
H1373 [4], log10 concentration (uM): 0.39794, ectopic expression: empty vector (YAP experiment)	–	0.504
H1373 [4], log10 concentration (uM): 0.69897, ectopic expression: YAP S127A	–	0.564
H1373 [4], log10 concentration (uM): 0.69897, ectopic expression: empty vector (YAP experiment)	–	0.413
H1373 [4], log10 concentration (uM): 1, ectopic expression: YAP S127A	–	0.545
H1373 [4], log10 concentration (uM): 1, ectopic expression: empty vector (YAP experiment)	–	0.329
H1373 [4], log10 concentration (uM): 1.301029996, ectopic expression: YAP S127A	–	0.413
H1373 [4], log10 concentration (uM): 1.301029996, ectopic expression: empty vector (YAP experiment)	–	0.26
H1373 [4], log10 concentration (uM): -0.30103, ectopic expression: YAP S127A	–	0.811
H1373 [4], log10 concentration (uM): -0.30103, ectopic expression: empty vector (YAP experiment)	–	0.862
H1373 [4], log10 concentration (uM): -0.60206, ectopic expression: YAP S127A	–	0.866
H1373 [4], log10 concentration (uM): -0.60206, ectopic expression: empty vector (YAP experiment)	–	0.847
H1373 [4], log10 concentration (uM): -1, ectopic expression: YAP S127A	–	0.933
H1373 [4], log10 concentration (uM): -1, ectopic expression: empty vector (YAP experiment)	–	0.917
H1373 [4], log10 concentration (uM): -2, ectopic expression: YAP S127A	–	1
H1373 [4], log10 concentration (uM): -2, ectopic expression: empty vector (YAP experiment)	–	0.989
H2030, siRNA knockdown (Con = control): Con	9.87	–
H2030, siRNA knockdown (Con = control): TEAD1234_si1	1.05	–
H2030, siRNA knockdown (Con = control): TEAD1234_si2	0.237	–
KYSE410, siRNA knockdown (Con = control): Con	4.24	–
KYSE410, siRNA knockdown (Con = control): TEAD1234_si1	1.05	–
KYSE410, siRNA knockdown (Con = control): TEAD1234_si2	1.07	–
KYSE410, siRNA knockdown (Con = control): YAP_WWTR1_si1	1.68	–
KYSE410, siRNA knockdown (Con = control): YAP_WWTR1_si2	1.19	–
MIAPACA2 [2], siRNA knockdown (Con = control): Con	10.4	–
MIAPACA2 [2], siRNA knockdown (Con = control): TEAD1234_si1	5.67	–
MIAPACA2 [2], siRNA knockdown (Con = control): TEAD1234_si2	5.42	–
MIAPACA2 [2], siRNA knockdown (Con = control): YAP_WWTR1_si1	4.42	–
MIAPACA2 [2], siRNA knockdown (Con = control): YAP_WWTR1_si2	6.97	–
MIAPACA2 [3], log10 concentration (uM): 0, ectopic expression: YAP S127A	–	1.05
MIAPACA2 [3], log10 concentration (uM): 0, ectopic expression: empty vector (YAP experiment)	–	1.01
MIAPACA2 [3], log10 concentration (uM): 0.39794, ectopic expression: YAP S127A	–	0.984
MIAPACA2 [3], log10 concentration (uM): 0.39794, ectopic expression: empty vector (YAP experiment)	–	0.743
MIAPACA2 [3], log10 concentration (uM): 0.69897, ectopic expression: YAP S127A	–	0.977
MIAPACA2 [3], log10 concentration (uM): 0.69897, ectopic expression: empty vector (YAP experiment)	–	0.542
MIAPACA2 [3], log10 concentration (uM): 1, ectopic expression: YAP S127A	–	0.913
MIAPACA2 [3], log10 concentration (uM): 1, ectopic expression: empty vector (YAP experiment)	–	0.25
MIAPACA2 [3], log10 concentration (uM): 1.301029996, ectopic expression: YAP S127A	–	0.315
MIAPACA2 [3], log10 concentration (uM): 1.301029996, ectopic expression: empty vector (YAP experiment)	–	0.0583
MIAPACA2 [3], log10 concentration (uM): -0.30103, ectopic expression: YAP S127A	–	0.946
MIAPACA2 [3], log10 concentration (uM): -0.30103, ectopic expression: empty vector (YAP experiment)	–	0.996
MIAPACA2 [3], log10 concentration (uM): -0.60206, ectopic expression: YAP S127A	–	0.915
MIAPACA2 [3], log10 concentration (uM): -0.60206, ectopic expression: empty vector (YAP experiment)	–	0.98
MIAPACA2 [3], log10 concentration (uM): -1, ectopic expression: YAP S127A	–	0.969
MIAPACA2 [3], log10 concentration (uM): -1, ectopic expression: empty vector (YAP experiment)	–	1.05
MIAPACA2 [3], log10 concentration (uM): -2, ectopic expression: YAP S127A	–	0.992
MIAPACA2 [3], log10 concentration (uM): -2, ectopic expression: empty vector (YAP experiment)	–	0.994
SW1573, siRNA knockdown (Con = control): Con	13.2	–
SW1573, siRNA knockdown (Con = control): TEAD1234_si1	0.342	–
SW1573, siRNA knockdown (Con = control): TEAD1234_si2	0.164	–
SW1573, siRNA knockdown (Con = control): YAP_WWTR1_si1	0.1	–
SW1573, siRNA knockdown (Con = control): YAP_WWTR1_si2	0.132	–
